From patent US12484574B2, “Agent for promoting undifferentiation and cryoprotective agent using aprotic zwitterion” (JAPAN SCIENCE AND TECHNOLOGY AGENCY, priority 2019, dated 2025)

Tests used:
[1] = tested on: Human iPS cells; test: Undifferentiation-specific gene expression analysis (Nanog, Oct3/4 quantitative PCR); assay type: cell-based; settings: no addition defined as 1
Experimental: Human iPS cells (RIKEN BRC) were reconstituted on SNL feeder cells (manufactured by Cell Biolabs, Inc.) and cultured in a CO2 incubator (5% CO2, 37° C., wet). On the next day, medium replacement was performed. The medium was replaced with a fresh one every day until 80% confluency. The cells that reached 80% confluency were recovered and subcultured. The subculture method for the cells is as follows: the cells were washed with DPBS(−) (no calcium, no magnesium, Thermo Fisher Scientific Inc.) and then treated with a CTK solution ((0.25% trypsin+1 mg/ml collagenase IV+1 mM CaCl2+20% KSR in DPBS (−))). The CTK solution was removed, and the cells were washed with DPBS(−) twice. […]
Subsequently, the expression levels of undifferentiation-specific genes Nanog and Oct3/4 were measured. […] The expression levels of the undifferentiation markers were quantified by the following method. […]
cDNA was synthesized from the FastLane lysate (RNA) through RT-PCR reaction using QuantiTect Reverse Transcription Kit (manufactured by Qiagen N.V.).
The quantitative PCR of OCT3/4 and NANOG was carried out under conditions of 95° C. for 30 seconds; (95° C. for 5 seconds; 60° C. for 30 seconds)×40; dissociation using SYBR Premix Ex Taq II (Tli RNaseH Plus) (manufactured by Takara Bio Inc.). […]

[2] = tested on: human fibroblasts; test: Influence on cell cycle (Click-iT Plus EdU cell proliferation assay); assay type: cell-based; settings: 2% addition; compared with no addition; FIG. 11
Experimental: The cells used were human fibroblasts.
The test groups were 1% addition groups and 2% addition groups of DMSO and HLS (OE2imC3C) vs. a control.
Cell cycle analysis was conducted using Click-iT® Plus EdU cell proliferation assay (Thermo Fisher Scientific Inc.) containing 5-ethynyl-2′-deoxyuridine (EdU) according to the manufacturer's protocol. The cells were incubated in 10 μM EdU for 1 hour, treated with trypsin, then fixed in 4% PFA, and labeled with Alexa Fluor 647 picolyl azide. The cells were stained with 4′,6-diamidino-2-phenylindole (DAPI) and analyzed with BD FACSAria™ III (BD Biosciences).

COCCOCCn1cc[n+](CCCC(=O)[O-])c1 [OE2imC3C]
relative expression levels of Nanog and Oct3/4 ([1]; with SNL feeder cells, 0.4, 1.0 and 2.0% (w/v) in human iPS cell medium, FIG. 1): amplify the undifferentiation markers | relative expression levels of Nanog and Oct3/4 ([1]; without feeder cells, 1.0 and 2.0% (w/v) in SNL-conditioned medium, FIG. 2): amplify the undifferentiation markers | influence on cell cycle (G0/G1 phase, S phase) [2]: little influence
